Source: patent publication US20260234165A1, “MACROCYCLIC COMPOUNDS, PREPARATION METHOD THEREFOR, AND USE THEREOF” (GENFLEET THERAPEUTICS (SHANGHAI) INC., priority 2004, published 2026)
Like-named read-outs stand apart in the source and are kept apart here.

Tests used:
Format in all cases: cell-based, human
NCI-H441 cells = experiment: 3D cell proliferation assay (CellTiter Glo-3D), NCI-H441; details: medium with 2% FBS, read-out: H441 AP IC50
Method in brief: (§1)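 Luminescence read-out (CellTiter-Glo 3D) after 5-day compound exposure at 37 °C, 5% CO2. Cells: NCI-H441 and AsPC-1, 800/well, RPMI-1640 + 2% FBS, 0.1% DMSO final. IC50 by four-parameter fit of % inhibition against log concentration.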

[1] = system: AsPC-1 cells (KRAS G12D mutation); experiment: 3D cell proliferation assay (CellTiter Glo-3D), AsPC-1; details: medium with 2% FBS, read-out: AsPC-1 AP IC50
Method in brief: as §1

[2] = system: p-ERK in NCI-H441 cells (KRAS G12V mutation); experiment: Cell p-ERK assay (HTRF) in NCI-H441 cells; details: NCI-H441 cells, 3 h compound incubation, HTRF p-ERK T202/Y204, read-out: H441 p-ERK IC50
Method in brief: (§2)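 Phospho-ERK inhibition measured by HTRF after a 3 h compound exposure (0.1% DMSO) in overnight-seeded cells; IC50 derived from dose-response fitting.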

[3] = system: p-ERK in AsPC-1 cells (KRAS G12D mutation); experiment: Cell p-ERK assay (HTRF) in AsPC-1 cells; details: AsPC-1 cells, 3 h compound incubation, HTRF p-ERK T202/Y204, read-out: AsPC-1 p-ERK IC50
Method in brief: as §2

[4] = 3D cell proliferation (CellTiter Glo-3D)
[5] = Homo sapiens, NCI-H441, 3D cell proliferation (CellTiter Glo-3D)
[6] = Homo sapiens, ASPC1, 3D cell proliferation (CellTiter Glo-3D)

Structure (SMILES)	IC50 (NCI-H441 cells; [4]) [nM]	IC50 [1, 4] [nM]	IC50 [2] [nM]	IC50 [3] [nM]	IC50 (NCI-H441 cells; [5]) [nM]	IC50 [1, 6] [nM]	IC50 ([2]; Homo sapiens, NCI-H441, 3 h) [nM]	IC50 ([3]; Homo sapiens, ASPC1, 3 h) [nM]
CCn1c(-c2cc(OC[C@@H]3CCCN3Cc3ccn(C)n3)cnc2[C@H](C)OC)c2c3cc(ccc31)-c1csc(n1)C[C@H](NC(=O)[C@H]1[C@H](C)[C@@H]1C)C(=O)N1CCC[C@H](N1)C(=O)OCC(C)(C)C2 (atropisomer, axis not shown; (Ra)) [Compound Z784-1, (1r,2R,3S)—N-((6^3S,4S,Z)—(Ra)-1^2-5-(((S)-1-((1-methyl-1H-pyrazol-3-yl)methyl)pyrrolidin-2-yl)methoxy)-(2-((S)-1-methoxyethyl)-pyridin-3-yl)-10,10-dimethyl-5,7-dioxo-6^1,6^2,6^3,6^4,6^5,6^6-hexahydro-1^1H-8-oxa-2(4,2)-thiazola-1(5,3)-indola-6(1.3)-pyridazinacycloundecaphane-4-yl)-2,3-dimethylcyclopropane-1-carboxamide]	–	–	–	–	0.93	1.37	0.9	0.89
CCn1c(-c2cc(OC[C@H]3CCCN3Cc3ccn(C)n3)cnc2[C@H](C)OC)c2c3cc(ccc31)-c1csc(n1)C[C@H](NC(=O)[C@H]1[C@H](C)[C@@H]1C)C(=O)N1CCC[C@H](N1)C(=O)OCC(C)(C)C2 (atropisomer, axis not shown; (Ra)) [Compound Z784-2, (1r,2R,3S)—N-((6^3S,4S,Z)—(Ra)-1^2-5-(((R)-1-((1-methyl-1H-pyrazol-3-yl)methyl)pyrrolidin-2-yl)methoxy)-(2-((S)-1-methoxyethyl)-pyridin-3-yl)-10,10-dimethyl-5,7-dioxo-6^1,6^2,6^3,6^4,6^5,6^6-hexahydro-1^1H-8-oxa-2(4,2)-thiazola-1(5,3)-indola-6(1.3)-pyridazinacycloundecaphane-4-yl)-2,3-dimethylcyclopropane-1-carboxamide]	–	–	–	–	0.53	0.83	0.8	0.66
CCn1c(-c2cc(OCCN3CCN(C)S(=O)(=O)CC3)cnc2[C@H](C)OC)c2c3cc(ccc31)-c1csc(n1)C[C@H](NC(=O)[C@H]1[C@H](C)[C@@H]1C)C(=O)N1CCC[C@H](N1)C(=O)OCC(C)(C)C2 (atropisomer, axis not shown; (Ra)) [Compound Z796]	–	–	–	–	0.28	1.1	0.55	0.42
CCn1c(-c2cc(C#CCN3CCCOCC3)cnc2[C@H](C)OC)c2c3cc(ccc31)-c1csc(n1)C[C@H](NC(=O)C(C)(C)CC)C(=O)N1CCC[C@H](N1)C(=O)OCC(C)(C)C2 (atropisomer, axis not shown; (Ra)) [Compound Z812, N-((6^3S,4S,Z)—(Ra)-1^2-(5-(3-(1,4-oxazepan-4-yl)prop-1-yn-1-yl)-2-((S)-1-methoxyethyl)pyridin-3-yl)-1^1-ethyl-10,10-dimethyl-5,7-dioxo-6^1,6^2,6^3,6^4,6^5,6^6-hexahydro-1^1H-8-oxa-2(4.2)-thiazola-1(5,3)-indola-6(1,3)-pyridazinacycloundecaphane-4-yl)-2.2-dimethylbutanamide]	–	–	–	–	1.64	3.52	1.06	1.69
CCn1c(-c2cc(C#CCN3CCOC[C@@H]3C)cnc2[C@H](C)OC)c2c3cc(ccc31)-c1csc(n1)C[C@H](NC(=O)[C@H]1[C@H](C)[C@@H]1C)C(=O)N1CCCC(N1)C(=O)OCC(C)(C)C2 (atropisomer, axis not shown; (Ra)) [Compound Z814]	0.18	0.14	0.14	0.15	–	–	–	–
CCn1c(-c2cc(C#CC3(N4CCC4)CC3)cnc2[C@H](C)OC)c2c3cc(ccc31)-c1csc(n1)C[C@H](NC(=O)[C@H]1[C@H](C)[C@@H]1C)C(=O)N1CCC[C@H](N1)C(=O)OCC(C)(C)C2 (atropisomer, axis not shown; (Ra)) [Compound Z836-1, (1r,2R,3S)—N-((4S,Z)—(Ra)-1^2-(5-((1-(azetidin-1-yl)cyclopropyl)ethynyl)-2-((S)-1-methoxyethyl)pyridin-3-yl)-1^1-ethyl-10,10-dimethyl-5,7-dioxo-6^1,6^2,6^3,6^4,6^5,6^6-hexahydro-1^1H-8-oxa-2(4,2)-thiazola-1(5,3)-indola-6(1,3)-pyridazinacycloundecaphane-4-yl)-2,3-dimethylcyclopropane-1-carboxamide]	0.64	1.05	0.83	0.5	–	–	–	–

Now from value to molecule:

IC50 (NCI-H441 cells; [4]) [nM]	IC50 [1, 4] [nM]	IC50 [2] [nM]	IC50 [3] [nM]	IC50 (NCI-H441 cells; [5]) [nM]	IC50 [1, 6] [nM]	IC50 ([2]; Homo sapiens, NCI-H441, 3 h) [nM]	IC50 ([3]; Homo sapiens, ASPC1, 3 h) [nM]	Structure (SMILES)
18.2	87.9	22.2	61.9	–	–	–	–	CCn1c(-c2cc(N3CCN(C)CC3)cnc2[C@H](C)OC)c2c3cc(ccc31)-c1csc(n1)C[C@H](Nc1nnc3cc(OC)ccn13)C(=O)N1CCC[C@H](N1)C(=O)OCC(C)(C)C2 (atropisomer, axis not shown; (Ra)) [Compound Z777, N-((6^3S,4S,Z)-1^1-ethyl-(Ra)-1^2(2-((S)-1-methoxyethyl)-5-(4-methylpiperazin-1-yl)pyridin-3-yl)-10,10-dimethyl-5,7-dioxo-6^1,6^2,6^3,6^4,6^5,6^6-hexahydro-1^1H-8-oxa-2(4,2)-thiazola-1(5,3)-indola-6(1,3)-pyridazinacycloundecaphane-4-yl)-4-(7-methoxy-[1,2,4]triazolo[4,3-a]pyridin-3-yl)amine]
–	–	1.65	1.35	1.83	3.22	–	–	CCn1c(-c2cc(C#CC(=O)N3CCCOCC3)cnc2[C@H](C)OC)c2c3cc(ccc31)-c1csc(n1)C[C@H](NC(=O)[C@H]1[C@H](C)[C@@H]1C)C(=O)N1CCC[C@H](N1)C(=O)OCC(C)(C)C2 (atropisomer, axis not shown; (Ra)) [Compound Z810, (1r,2R,3S)—N-((6^3S,4S,Z)-1^1-ethyl-(Ra)-1-(5-(3-(1,4-oxazepan-4-yl)-3-oxoprop-1-yn-1-yl)-2-((S)-1-methoxyethyl)pyridin-3-yl)-10,10-methyl-5,7-dioxo-6^1,6^2,6^3,6^4,6^5,6^6hexahydro-1^1H-8-oxa-2(4,2)-thiazola-1(5,3)-indola-6(1,3)-pyridazinacycloundecaphane-4-yl)-2,3-dimethylcyclopropane-1-carboxamide]
–	–	–	–	0.13	0.08	0.25	0.18	CCn1c(-c2cc(C#CCN3CCS(=N)(=O)CC3)cnc2[C@H](C)OC)c2c3cc(ccc31)-c1csc(n1)C[C@H](NC(=O)[C@H]1[C@H](C)[C@@H]1C)C(=O)N1CCC[C@H](N1)C(=O)OCC(C)(C)C2 (atropisomer, axis not shown; (Ra)) [Compound Z850, (1r,2R,3S)—N-((6^3S,4S,Z)-1^1-ethyl-(Ra)-1^2-(5-(3-(1-imino-1-oxo-11^6-thiomorpholino)prop-1-yn-1-yl)-2-((S)-1-methoxyethyl)pyridin-3-yl)-10,10-dimethyl-5,7-dioxo-6^1,6^2,6^3,6^4,6^5,6^6-hexahydro-1^1-8-oxa-2(4,2)-thiazola-1(5,3)-indola-0(1,3)-pyridazinacycloundecaphane-4-yl)-2.3-dimethylcyclopropane-1-carboxamide]
–	–	–	–	0.16	0.22	0.17	0.29	CCn1c(-c2cc(N3CCC(N4CCS(=O)(=O)CC4)CC3)cnc2[C@H](C)OC)c2c3cc(ccc31)-c1csc(n1)C[C@H](NC(=O)[C@H]1[C@H](C)[C@@H]1C)C(=O)N1CCC[C@H](N1)C(=O)OCC(C)(C)C2 (atropisomer, axis not shown; (Ra)) [Compound Z855, (1r,2R,3S)—N-((6S,4S,Z)—(Ra)-1^2-(5-(4-(1,1-dioxidothiomorpholino)piperidin-1-yl)-2-((S)-1-methoxyethyl)pyridin-3-yl)-1^1-ethyl-10,10-dimethyl-5,7-dioxo-6^1,6^2,6^3,6^4,6^5,6^6-hexahydro-1^1H-8-oxa-2(4,2)-thiazola-1(5,3)-indola-6(1,3)-pyridazinacycloundecaphane-4-yl)-2,3-dimethylcyclopropane-1-carboxamide]
0.11	0.24	0.27	0.19	–	–	–	–	CCn1c(-c2cc(C#CCN3CCCOCC3)c[n+]([O-])c2[C@H](C)OC)c2c3cc(ccc31)-c1csc(n1)C[C@H](NC(=O)[C@H]1[C@H](C)[C@@H]1C)C(=O)N1CCC[C@H](N1)C(=O)OCC(C)(C)C2 (atropisomer, axis not shown; (Ra)) [Compound Z914-1, 5-(3-(1,4-oxazepan-4-yl)prop-1-yn-1-yl)-(Ra)-3-((6^3S,4S,Z)-4-((1r,2R,3S)-2,3-dimethylcyclopropane-1-carboxamido)-1^1-ethyl-10,10-dimethyl-5,7-dioxo-6^1,6^2,6^3,6^4,6^5,6^6-hexahydro-1^1H-8-oxa-2(4,2)-thiazola-1(5,3)-indola-6(1,3)-pyridazinacycloundecaphane-12-yl)-2-((S)-1-methoxyethyl)pyridine-1-oxide]
